The values below come from article PMC6272913, “Synthesis of Bioactive 2-(Arylamino)thiazolo[5,4-f]-quinazolin-9-ones via the Hügershoff Reaction or Cu- Catalyzed Intramolecular C-S Bond Formation” (Molecules, 2016).

One may read the IC50 as the point on the concentration scale where inhibition reaches its midpoint. Low readings indicate higher potency, high ones lower potency.

Assay [1] deals with GSK-3α/β. Kind of assay: GSK-3α/β in vitro kinase assay (GS-1 peptide). The assay is classed as biochemical, Porcine. To be noted: 15 μM ATP, 30 min at 30 °C, triplicate; >10 = less than 50% inhibition at 10 µM.
Assay [2] addresses CLK1 (Homo sapiens, UniProt P49759). Nature of the assay: CLK1 in vitro kinase assay (RS peptide). The assay is classed as biochemical. Conditions: 15 μM ATP, 30 min at 30 °C, triplicate; >10 = less than 50% inhibition at 10 µM.
In assay [3] the target is CK1δ/ε. Nature of the assay: CK1δ/ε in vitro kinase assay (CK1-specific peptide substrate). It counts as biochemical, Porcine. To be noted: 15 μM ATP, 30 min at 30 °C, triplicate; >10 = less than 50% inhibition at 10 µM.
Assay [4] addresses T1, CDK5/p25 (Homo sapiens, UniProt Q00535).
T1 construct: made in house
Kind of assay: CDK5/p25 in vitro kinase assay (histone H1, [γ-33P] ATP). The assay is classed as biochemical.

The target in assay [5] is DYRK1A (Rattus norvegicus, UniProt Q63470). Nature of the assay: DYRK1A in vitro kinase assay (Woodtide). It counts as biochemical. Conditions: 15 μM ATP, 30 min at 30 °C, triplicate; >10 = less than 50% inhibition at 10 µM.
Setting [6] is: 15 μM ATP, 30 min at 30 °C, triplicate, >10 = less than 50% inhibition at 10 µM.

“And” between values parts separate entries of the source, which are not always exact repeats. Equal entries are not always repeated. Where two headings read alike, the source gives them in different places.

T1 sequence (Q00535 whole entry): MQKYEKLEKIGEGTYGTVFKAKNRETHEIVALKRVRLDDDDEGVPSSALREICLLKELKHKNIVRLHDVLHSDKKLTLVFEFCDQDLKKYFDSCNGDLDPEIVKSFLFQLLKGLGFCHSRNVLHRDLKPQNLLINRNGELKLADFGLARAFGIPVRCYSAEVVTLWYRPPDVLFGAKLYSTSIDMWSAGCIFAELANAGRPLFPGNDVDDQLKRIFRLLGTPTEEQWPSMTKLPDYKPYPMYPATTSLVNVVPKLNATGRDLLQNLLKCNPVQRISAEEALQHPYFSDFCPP
T1 sequence (Q15078 99-307 partner limits assumed): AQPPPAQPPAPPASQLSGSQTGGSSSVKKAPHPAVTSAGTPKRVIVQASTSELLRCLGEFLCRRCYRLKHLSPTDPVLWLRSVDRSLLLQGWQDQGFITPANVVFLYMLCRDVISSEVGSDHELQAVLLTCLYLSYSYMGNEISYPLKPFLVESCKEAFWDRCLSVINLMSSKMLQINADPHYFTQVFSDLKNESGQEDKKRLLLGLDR
CLK1, sequence (P49759 whole entry): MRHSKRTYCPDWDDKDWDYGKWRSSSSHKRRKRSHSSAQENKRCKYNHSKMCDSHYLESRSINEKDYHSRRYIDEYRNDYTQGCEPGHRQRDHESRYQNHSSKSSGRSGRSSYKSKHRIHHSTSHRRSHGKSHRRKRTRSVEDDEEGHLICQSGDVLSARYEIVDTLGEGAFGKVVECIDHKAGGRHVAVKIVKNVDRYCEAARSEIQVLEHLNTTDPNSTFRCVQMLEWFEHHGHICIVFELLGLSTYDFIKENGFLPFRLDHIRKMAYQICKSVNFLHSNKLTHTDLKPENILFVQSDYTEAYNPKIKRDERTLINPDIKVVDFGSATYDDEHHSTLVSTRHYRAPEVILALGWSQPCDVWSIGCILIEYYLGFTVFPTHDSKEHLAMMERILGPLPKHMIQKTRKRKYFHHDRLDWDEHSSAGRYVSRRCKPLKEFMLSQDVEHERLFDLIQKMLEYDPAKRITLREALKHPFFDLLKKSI

With `N=C(c1nc2ccc3ncn(C4CC4)c(=O)c3c2s1)N1CCCCC1` [Compound 17f, 8-Cyclopropyl-2-[imino(piperidin-1-yl)methyl]thiazolo[5,4-f]quinazolin-9(8H)-one], the 50% inhibitory concentration (IC50) was 0.49 µM in assay [1]; 0.61 µM in assay [2]; over 10 µM in assay [3]; over 10 µM in assay [4] (setting [6]); 0.82 µM in assay [5].

Turning to “8-Cyclopropyl-2-(piperidin-1-yl)thiazolo[5,4-f]quinazolin-9(8H)-one [Compound 14f]”, the IC50 in assay [1] is at least 10 µM; in assay [2], over 10 µM; in assay [3] it was over 10 µM; in assay [4] (setting [6]) it was over 10 µM; in assay [5], over 10 µM.

`N=C(c1nc2ccc3ncn(C4CC4)c(=O)c3c2s1)N1CCOCC1` [Compound 17e, 8-Cyclopropyl-2-[imino(morpholino)methyl]thiazolo[5,4-f]quinazolin-9(8H)-one]: the 50% inhibitory concentration (IC50) in assay [1] was 0.23 µM; in assay [2], 0.38 µM; in assay [3], 1.9 µM; in assay [4] (setting [6]) it was over 10 µM; in assay [5] it was 0.14 µM.

For the molecule `O=c1c2c(ccc3nc(NCCN4CCOCC4)sc32)ncn1C1CC1` [Compound 14d, 8-Cyclopropyl-2-[(2-morpholinoethyl)amino]thiazolo[5,4-f]quinazolin-9(8H)-one], the IC50 in assay [1] is at least 10 µM; in assay [2] it was 8.1 µM; in assay [3], over 10 µM; in assay [4] it was over 10 µM; in assay [5], 8.2 µM.

On to `N/C(=N\CCN1CCOCC1)c1nc2ccc3ncn(C4CC4)c(=O)c3c2s1` [Compound 17c, (Z)-8-Cyclopropyl-N′-(2-morpholinoethyl)-9-oxo-8,9-dihydrothiazolo[5,4-f]quinazoline-2-carboximidamide], for which the IC50 in assay [1] is 2.8 µM; in assay [2], 2.3 µM; in assay [3], over 10 µM; in assay [4], over 10 µM; in assay [5] it was 3.2 µM.

With `COc1ccc2c(c1)[nH]c1c(C)nccc12` [Harmine, reference compound], the IC50 in assay [1] was over 10 µM; in assay [3] it was 1.5 µM.

Consider `CN(C)CCNc1nc2ccc3ncn(C4CC4)c(=O)c3c2s1` [Compound 14b, 8-Cyclopropyl-2-([2-(dimethylamino)ethyl]amino)thiazolo[5,4-f]quinazolin-9(8H)-one], for which the IC50 in assay [1] is at least 10 µM; in assay [2], over 10 µM; in assay [3] it was over 10 µM; in assay [4] it was over 10 µM; in assay [5] it was over 10 µM.

As to `N/C(=N\CCN1CCCCC1)c1nc2ccc3ncn(C4CC4)c(=O)c3c2s1` [Compound 17d, (Z)-8-Cyclopropyl-9-oxo-N′-[2-(piperidin-1-yl)ethyl]-8,9-dihydrothiazolo[5,4-f]quinazoline-2-carboximidamide], the IC50 is 3.9 µM in assay [1]; 2.1 µM in assay [2]; over 10 µM in assay [3]; over 10 µM in assay [4]; 2.9 µM in assay [5].

For `COc1cc2nc(Nc3ccc4ncn(C5CC5)c(=O)c4c3)sc2cc1OC` [Compound 10l, 3-Cyclopropyl-6-((5,6-dimethoxybenzo[d]thiazol-2-yl)amino)quinazolin-4(3H)-one], the IC50 was at least 10 µM in assay [1]; over 10 µM in assay [2]; over 10 µM in assay [3]; over 10 µM in assay [4]; over 10 µM in assay [5].

For `CN(C)c1ccc(Nc2nc3ccc4ncn(C5CC5)c(=O)c4c3s2)cc1` [Compound 8j, 8-Cyclopropyl-2-([4-(dimethylamino)phenyl]amino)thiazolo[5,4-f]quinazolin-9(8H)-one], the half-inhibitory concentration (IC50) in assay [2] was 1.3 to 7.3 µM and 1.3 µM; in assay [3] it was over 10 µM; in assay [4], over 10 µM; in assay [5], 1.3 to 7.3 µM and 2 µM.

`O=c1c2c(ccc3nc(N4CCCCC4)sc32)ncn1C1CC1` [Compound 14e, 8-Cyclopropyl-2-(piperidin-1-yl)thiazolo[5,4-f]quinazolin-9(8H)-one]: the 50% inhibitory concentration (IC50) is at least 10 µM in assay [1]; 5.3 µM in assay [2]; over 10 µM in assay [3]; over 10 µM in assay [4]; over 10 µM in assay [5].

Consider `O=c1c2c(ccc3nc(Nc4cccnc4)sc32)ncn1C1CC1` [Compound 8g, 8-Cyclopropyl-2-(pyridin-3-ylamino)thiazolo[5,4-f]quinazolin-9(8H)-one], for which the IC50 is at least 10 µM in assay [1]; 1.7 µM in assay [2]; over 10 µM in assay [3]; over 10 µM in assay [4]; over 10 µM in assay [5].

For `CN(C)CC/N=C(\N)c1nc2ccc3ncn(C4CC4)c(=O)c3c2s1` [Compound 17b, (Z)-8-Cyclopropyl-N′-[2-(dimethylamino)ethyl]-9-oxo-8,9-dihydrothiazolo[5,4-f]quinazoline-2-carboximidamide], the IC50 in assay [1] was 1.1 µM; in assay [2] it was 0.29 µM; in assay [3], over 10 µM; in assay [4], over 10 µM; in assay [5] it was 4.4 µM.

For the molecule `O=c1c2c(ccc3nc(Nc4ccccc4)sc32)ncn1C1CC1` [Compound 8a, 8-Cyclopropyl-2-(phenylamino)thiazolo[5,4-f]quinazolin-9(8H)-one], the IC50 in assay [1] was at least 10 µM; in assay [2] it was 3.4 µM; in assay [3], over 10 µM; in assay [4] it was over 10 µM; in assay [5], over 10 µM.

Turning to `N=C(NCc1ccccc1)c1nc2ccc3ncn(C4CC4)c(=O)c3c2s1` [Compound 17a, N-Benzyl-8-cyclopropyl-9-oxo-8,9-dihydrothiazolo[5,4-f]quinazoline-2-carboximidamide], the IC50 in assay [1] is 0.4 µM; in assay [2], 1 µM; in assay [3], over 10 µM; in assay [4], over 10 µM; in assay [5], 0.67 µM.

In the case of `O=c1c2cc(Nc3nc4ccccc4s3)ccc2ncn1C1CC1` [Compound 10a, 3-Cyclopropyl-6-[(benzo[d]thiazol-2-yl)amino]quinazolin-4(3H)-one], the IC50 was at least 10 µM in assay [1]; 5.2 µM in assay [2]; over 10 µM in assay [3]; over 10 µM in assay [4]; 4.8 µM in assay [5].

On to `O=c1c2c(ccc3nc(NCc4ccccc4)sc32)ncn1C1CC1` [Compound 14a, 2-(Benzylamino)-8-cyclopropylthiazolo[5,4-f]quinazolin-9(8H)-one], for which the IC50 in assay [1] was over 10 µM; in assay [2], 3.4 µM; in assay [3] it was over 10 µM; in assay [4], over 10 µM; in assay [5], over 10 µM.

Consider `O=c1c2c(ccc3nc(NCCN4CCCCC4)sc32)ncn1C1CC1` [Compound 14c, 8-Cyclopropyl-2-([2-(piperidin-1-yl)ethyl]amino)thiazolo[5,4-f]quinazolin-9(8H)-one], for which the IC50 in assay [1] was at least 10 µM; in assay [2] it was over 10 µM; in assay [3], over 10 µM; in assay [4] (setting [6]), over 10 µM; in assay [5] it was over 10 µM.
